Test results taken from patent publication US20220233713A1, “SONODYNAMIC THERAPY” (priority 2019, published 2022).
Where a name gives a salt, the structure may show the parent alone.

Test system: BxPC-3 tumours
Experiment: In vivo BxPC-3 xenograft model, tumour growth
Set-up: species or system SCID mice
Conditions: 100 μL I.P. injection, Gem HCl 120 mg/kg (scaled clinical dose); FIG. 7
Description: All animals in these studies were treated humanely and in accordance with licensed protocols under the Animals (Scientific Procedures) Act 1986 (UK). BxPc-3 cells were maintained in RPMI 1640 media supplemented with 100 U/mL penicillin, […] streptomycin, and 10% fetal bovine serum (FBS) in a humidified 5% CO2 atmosphere at 37° C. Cells (1×10^6) were re-suspended in Matrigel® and implanted subcutaneously into the rear dorsum of SCID (C.B-17/IcrHan@Hsd-Prkdcscid) mice. Tumours reached treatable size within 3 weeks. Tumour measurements were taken daily using callipers. Once the tumours had reached an average volume of 150 mm^3 animals were randomly assigned into treatment groups. Animals were anaesthetised using isoflurane with medical grade oxygen as the carrier gas. […] As control groups, animals were treated with a 100 μL I.P injection of either (i) gemcitabine hydrochloride (120 mg/kg) or (ii) gemcitabine hydrochloride (120 mg/kg) and PTX (15 mg/kg). Ultrasound was applied directly to the tumour immediately following injection at an ultrasound frequency of 1 MHz, an ultrasound power density of 3.5 W/cm^2 and a duty cycle of 30% for 3.5 min. Tumour volume was measured using callipers and calculated using the formula: V=L×W×H/2.

## Nc1ccn([C@@H]2O[C@H](CO)[C@@H](O)C2(F)F)c(=O)n1 [Gem HCl, gemcitabine hydrochloride]
  tumour growth control: significantly controls tumour growth progression
